Consider 18 compounds from patent US10562912B2 (C&C Research Laboratories, priority 2013, dated 2020).

Structures are written as SMILES.

What is called IC50 is the point on the concentration scale where inhibition reaches its midpoint.

What all share (assay type): cell-based
One assay relates to LNCaP. Put plainly: Cell growth inhibition assay, prostate cancer cell line LNCaP (medium with 10 ng/mL IL-6). To be noted: Homo sapiens, medium supplemented with 10 ng/mL of IL-6, 10,000 cells/well.
The test system of another assay is DU-145. Kind of assay: Cell growth inhibition assay, prostate cancer cell line DU-145. Particulars: Homo sapiens, DU-145 prostate cancer cell line. The method in brief:
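Cancer cells, counted and seeded at 3,000 (DU-145, HCT116) or 5,000 (SW626) cells/well, received graded compound concentrations. Plates incubated 72–96 h at 37° C. with 5% CO2 were then assayed with CellTiter-Glo.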

Another assay has as its target T1, STAT3 (Homo sapiens, UniProt P40763).
T1 construct: plasmid pSTAT3-TA-luc), which contains a stably operating STAT3 promoter; endogenous in cells
Kind of assay: STAT3 reporter gene assay (luciferase), LNCaP stable cell line (pSTAT3-TA-luc), IL-6 stimulation. An outline of the steps:
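Cytotoxicity was run on a duplicate plate with CellTiter-Glo, while the other plate gave luciferase read-outs from lysed LNCaP pSTAT3-TA-luc reporter cells. Cells were treated with graded compound concentrations plus IL-6 (10 ng/mL final) for 24–48 h in 3% DCC-FBS medium. Unstimulated and stimulated wells served as negative and positive controls.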

The subject of a further assay is HEL92.1.7. Kind of assay: Cell growth inhibition assay, blood cancer cell line HEL92.1.7. To be noted: Homo sapiens, HEL 92.1.7, HEL92.1.7 blood cancer cell line. On the procedure: The inhibitory effects of the compounds of the present invention against the growth of cancer cells were evaluated as shown below. The cancer cell lines including stomach cancer cell line (AGS), breast cancer cell lines (MDA-MB-231, MDA-MB-468, and BT-549), prostate cancer cell lines (LNCaP and DU-145), colon cancer cell line (HCT116), ovarian cancer cell line (SW626), liver cancer cell line (Hep3B), kidney cancer cell line (ACHN), lung cancer cell line (NCI-H23) and blood cancer cell lines (HEL92.1.7 and U266) were cultured under the protocol provided by each supplier. A medium supplemented with 10 ng/mL of IL-6 was used for LNCaP, a prostate cancer cell line, when treated with a drug. Each type of cells to be used in experiments were sub-cultured in a 96-well plate by counting the exact number of cells using Tali™ Image-based Cytometer (Life Technologies). In a 96-well plate, AGS, HCT116, and DU-145 were employed with 3,000 cells/well; NCI-H23, SW626, Hep3B, ACHN, BT-549, MDA-MB-231, HEL92.1.7, and U266 were employed with 5,000 cells/well; and LNCaP and MDA-MB-468 were employed with 10,000 cells/well. The cells were treated with the compounds listed in Examples which were diluted in various concentrations. Upon completion of the compounds treatment, AGS, HCT116, SW626, DU145, NCI-H23, Hep3B, ACHN, BT-549, LNCaP, HEL92.1.7, and U266 cells were cultured at 37° C. under 5% CO2 for from 72 to 96 hours, and MDA-MB-231 and MDA-MB-468 cells were cultured at 37° C. in air for from 72 to 96 hours. Subsequently, the cells were observed under microscope and drug precipitation and particular findings were investigated and recorded. And then, the 96-well plate was placed at room temperature for 30 minutes, added with 20 μL/well of CellTiter-Glo solution (Cat No. G7573, Promega) and shaken for 10 minutes, followed by being subjected to the measurement using PHERAstar™ microplate reader (BMG LABTECH) according to the supplier's general luminometer protocol. Wells where only culture liquid added without cell plating were used as a negative control, whereas wells where culture liquid containing 0.1% DMSO instead of the compounds listed in Examples were used as a positive control.

T1 sequence (P40763 whole entry): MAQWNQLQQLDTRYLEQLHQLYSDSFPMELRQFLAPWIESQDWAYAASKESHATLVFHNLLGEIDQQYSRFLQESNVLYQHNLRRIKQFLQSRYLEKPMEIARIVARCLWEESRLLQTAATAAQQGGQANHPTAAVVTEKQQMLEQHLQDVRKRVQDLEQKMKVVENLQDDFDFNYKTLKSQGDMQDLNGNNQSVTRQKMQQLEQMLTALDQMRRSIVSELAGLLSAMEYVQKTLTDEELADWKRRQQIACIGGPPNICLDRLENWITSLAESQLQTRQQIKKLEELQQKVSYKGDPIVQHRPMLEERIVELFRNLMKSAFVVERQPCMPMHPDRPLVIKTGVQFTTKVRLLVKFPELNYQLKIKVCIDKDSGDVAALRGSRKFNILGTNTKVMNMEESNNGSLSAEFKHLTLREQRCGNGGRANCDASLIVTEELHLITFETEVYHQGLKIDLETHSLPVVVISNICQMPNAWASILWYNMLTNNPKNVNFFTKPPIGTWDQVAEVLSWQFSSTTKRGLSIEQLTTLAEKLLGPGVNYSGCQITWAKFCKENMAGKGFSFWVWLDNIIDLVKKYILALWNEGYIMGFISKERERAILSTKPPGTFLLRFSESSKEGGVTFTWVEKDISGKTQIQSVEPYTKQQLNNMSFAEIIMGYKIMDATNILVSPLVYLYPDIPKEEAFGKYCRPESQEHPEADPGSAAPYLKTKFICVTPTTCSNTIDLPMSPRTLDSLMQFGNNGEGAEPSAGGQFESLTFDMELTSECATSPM

With `COc1cc(OC(F)(F)F)cc(C(C)(C)c2cc(NC(=O)c3cc4cc(NS(C)(=O)=O)ccc4s3)cc(Cl)n2)c1` [Example 149, N-(2-chloro-6-(2-(3-methoxy-5-(trifluoromethoxy)phenyl)propan-2-yl)pyridin-4-yl)-5-(methylsulfonamido)benzo[b]thiophene-2-carboxamide], the IC50 in the assay on LNCaP came out at 0.05 µM; in the assay with DU-145 it was 0.03 µM; against STAT3, 0.07 µM; in the assay with HEL92.1.7, 0.14 µM.

Turning to `COc1cc(OC(F)(F)F)cc(C(C)(C)c2cc(Cl)cc(NC(=O)c3cc4cc(NS(C)(=O)=O)ccc4s3)n2)c1` [Example 150, N-(4-chloro-6-(2-(3-methoxy-5-(trifluoromethoxy)phenyl)propan-2-yl)pyridin-2-yl)-5-(methylsulfonamido)benzo[b]thiophene-2-carboxamide], the concentration for half-maximal inhibition (IC50) in the assay with LNCaP came to 0.016 µM; in the assay on DU-145, 0.008 µM; against STAT3, 0.014 µM; with HEL92.1.7 it was 0.031 µM.

On to `CC(C)Oc1cc(OC(F)(F)F)cc(C(C)(C)c2cc(Cl)cc(NC(=O)c3cc4nc(NS(C)(=O)=O)cnc4s3)c2)c1` [Example 151, N-(3-chloro-5-(2-(3-isopropoxy-5-(trifluoromethoxy)phenyl)propan-2-yl)phenyl)-2-(methylsulfonamido)thieno[2,3-b]pyrazine-6-carboxamide], for which the 50% inhibitory concentration (IC50) in the assay with LNCaP is 0.36 µM; in the assay with DU-145, over 1.1 µM; against STAT3 it was 2.2 µM; in the assay on HEL92.1.7 it was 4.7 µM.

As to `CC(C)(c1ccc(Br)cc1)c1cc(Cl)cc(NC(=O)c2cc3cc(NS(C)(=O)=O)ccc3s2)c1` [Example 152, N-(3-(2-(4-bromophenyl)propan-2-yl)-5-chlorophenyl)-5-(methylsulfonamido)benzo[b]thiophene-2-carboxamide], the IC50 in the assay with LNCaP stood at 0.059 µM; in the assay on DU-145 it was 0.047 µM; against STAT3 it was 0.12 µM; in the assay with HEL92.1.7, 0.21 µM.

As to `COc1ccc(C(C)(C)c2cc(Cl)cc(NC(=O)c3cc4cc(NS(C)(=O)=O)ccc4s3)c2)cc1OC` [Example 153, N-(3-chloro-5-(2-(3,4-dimethoxyphenyl)propan-2-yl)phenyl)-5-(methylsulfonamido)benzo[b]thiophene-2-carboxamide], the half-maximal inhibitory concentration (IC50) with LNCaP is 0.1 µM; with DU-145, 0.15 µM; against STAT3, 0.15 µM; with HEL92.1.7, 0.39 µM.

As for `COc1ccc(C(C)(C)c2cc(Cl)cc(NC(=O)c3cc4cc(NS(C)(=O)=O)ccc4s3)c2)c(OC)c1` [Example 154, N-(3-chloro-5-(2-(2,4-dimethoxyphenyl)propan-2-yl)phenyl)-5-(methylsulfonamido)benzo[b]thiophene-2-carboxamide], the IC50 was 0.11 µM in the assay on LNCaP, 0.17 µM with DU-145, 0.14 µM against STAT3 and 0.34 µM with HEL92.1.7.

Take `COc1ccc(C(C)(C)c2cc(Cl)cc(NC(=O)c3cc4cc(NS(C)(=O)=O)ccc4s3)c2)cc1` [Example 155, N-(3-chloro-5-(2-(4-methoxyphenyl)propan-2-yl)phenyl)-5-(methylsulfonamido)benzo[b]thiophene-2-carboxamide]: the concentration for half-maximal inhibition (IC50) with LNCaP was found to be 0.034 µM; in the assay with DU-145, 0.061 µM; against STAT3, 0.078 µM; with HEL92.1.7, 0.13 µM.

Turning to `COc1ccc(OC)c(C(C)(C)c2cc(Cl)cc(NC(=O)c3cc4cc(NS(C)(=O)=O)ccc4s3)c2)c1` [Example 156, N-(3-chloro-5-(2-(2,5-dimethoxyphenyl)propan-2-yl)phenyl)-5-(methylsulfonamido)benzo[b]thiophene-2-carboxamide], the IC50 with LNCaP was determined as 0.14 µM; in the assay with DU-145, 0.25 µM; against STAT3, 0.23 µM; with HEL92.1.7 it was 0.74 µM.

For `CSc1ccc(C(C)(C)c2cc(Cl)cc(NC(=O)c3cc4cc(NS(C)(=O)=O)ccc4s3)c2)cc1` [Example 157, N-(3-chloro-5-(2-(4-(methylthio)phenyl)propan-2-yl)phenyl)-5-(methylsulfonamido)benzo[b]thiophene-2-carboxamide], the IC50 with LNCaP came to 0.079 µM; with DU-145, 0.06 µM; against STAT3, 0.063 µM; in the assay on HEL92.1.7, 0.23 µM.

Regarding `CC(C)(c1ccc(Cl)cc1)c1cc(Cl)cc(NC(=O)c2cc3cc(NS(C)(=O)=O)ccc3s2)c1` [Example 158, N-(3-chloro-5-(2-(4-chlorophenyl)propan-2-yl)phenyl)-5-(methylsulfonamido)benzo[b]thiophene-2-carboxamide], the 50% inhibitory concentration (IC50) was found to be 0.056 µM in the assay with LNCaP, 0.048 µM in the assay on DU-145, 0.12 µM against STAT3 and 0.22 µM with HEL92.1.7.

As to `CC(C)(c1cc(Cl)cc(NC(=O)c2cc3cc(NS(C)(=O)=O)ccc3s2)c1)c1ccc(F)c(F)c1` [Example 162, N-(3-chloro-5-(2-(3,4-difluorophenyl)propan-2-yl)phenyl)-5-(methylsulfonamido)benzo[b]thiophene-2-carboxamide], the IC50 in the assay on LNCaP was 0.064 µM; in the assay with DU-145, 0.052 µM; against STAT3, 0.069 µM; in the assay on HEL92.1.7, 0.2 µM.

For the compound `CN(c1cc2cc(C(=O)Nc3cc(Cl)cc(C(C)(C)c4ccc(Cl)cc4)c3)sc2cc1F)S(C)(=O)=O` [Example 163, N-(3-chloro-5-(2-(4-chlorophenyl)propan-2-yl)phenyl)-6-fluoro-5-(N-methylmethylsulfonamido)benzo[b]thiophene-2-carboxamide], the IC50 turned out to be 0.013 µM with LNCaP, 0.016 µM in the assay on DU-145, 0.011 µM at STAT3 and 0.019 µM with HEL92.1.7.

For the compound `CC(C)(c1cc(Cl)cc(NC(=O)c2cc3cc(NS(C)(=O)=O)ccc3s2)c1)N1CCCCC1` [Example 164, N-(3-chloro-5-(2-(piperidin-1-yl)propan-2-yl)phenyl)-5-(methylsulfonamido)benzo[b]thiophene-2-carboxamide], the half-inhibitory concentration (IC50) in the assay with LNCaP was 0.9 µM; in the assay on DU-145, over 1.1 µM; on STAT3, 0.72 µM; in the assay on HEL92.1.7, over 1.1 µM.

Turning to `CC(C)(c1cc(Cl)cc(NC(=O)c2cc3cc(NS(C)(=O)=O)ccc3s2)c1)c1ccc[nH]1` [Example 166, N-(3-(2-(1H-pyrrol-2-yl)propan-2-yl)-5-chlorophenyl)-5-(methylsulfonamido)benzo[b]thiophene-2-carboxamide], the IC50 in the assay with LNCaP is 1 µM; in the assay on DU-145 it was 0.41 µM; at STAT3, 0.31 µM; with HEL92.1.7, over 1.1 µM.

For `CC(C)(c1cc[nH]c1)c1cc(Cl)cc(NC(=O)c2cc3cc(NS(C)(=O)=O)ccc3s2)c1` [Example 167, N-(3-(2-(1H-pyrrol-3-yl)propan-2-yl)-5-chlorophenyl)-5-(methylsulfonamido)benzo[b]thiophene-2-carboxamide], the half-maximal inhibitory concentration (IC50) was 2.3 µM in the assay on LNCaP, over 1.1 µM in the assay with DU-145, 2.6 µM at STAT3 and over 1.1 µM in the assay with HEL92.1.7.

In the case of `Cn1ccc(C(C)(C)c2cc(Cl)cc(NC(=O)c3cc4cc(NS(C)(=O)=O)ccc4s3)c2)c1` [Example 168, N-(3-chloro-5-(2-(1-methyl-1H-pyrrol-3-yl)propan-2-yl)phenyl)-5-(methylsulfonamido)benzo[b]thiophene-2-carboxamide], the 50% inhibitory concentration (IC50) in the assay on LNCaP was found to be 0.096 µM; in the assay with DU-145, 0.13 µM; on STAT3, 0.13 µM; in the assay on HEL92.1.7 it was 0.39 µM.

Take `Cn1cccc1C(C)(C)c1cc(Cl)cc(NC(=O)c2cc3cc(NS(C)(=O)=O)ccc3s2)c1` [Example 169, N-(3-chloro-5-(2-(1-methyl-1H-pyrrol-2-yl)propan-2-yl)phenyl)-5-(methylsulfonamido)benzo[b]thiophene-2-carboxamide]: the IC50 in the assay on LNCaP is 0.073 µM; in the assay on DU-145 it was 0.021 µM; at STAT3, 0.039 µM; in the assay on HEL92.1.7, 0.09 µM.

As for `CC(C)(c1cc(Cl)cc(NC(=O)c2cc3cc(NS(C)(=O)=O)ccc3s2)c1)n1cnccc1=O` [Example 189], the IC50 in the assay on LNCaP was over 10 µM; in the assay with DU-145 it was over 1.1 µM; against STAT3, over 10 µM; in the assay with HEL92.1.7, over 1.1 µM.
